From US20260355212A1 (priority 2022, published 2026)
Where two headings read alike, the source gives them in different places.

Assays:
SARS-CoV-2 Mpro = SARS-CoV-2 Mpro (Severe acute respiratory syndrome coronavirus 2, UniProt P0DTD1); test: SARS-CoV-2 Mpro enzymatic inhibition assay (fluorescence); format: biochemical
Method in brief: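 Recombinant Mpro expressed in E. coli was preincubated 30 min at room temperature with 10-point, 3-fold serially diluted compound in duplicate. Fluorogenic substrate was then added and incubated 60 min at 30° C, and fluorescence read at Ex/Em 340/490 nm. IC50 came from a four-parameter fit of % inhibition.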

HCoV-HKU1 Mpro = HCoV-HKU1 Mpro (Human coronavirus HKU1, UniProt P0C6X2); test: HCoV-HKU1 Mpro enzymatic inhibition assay (fluorescence); format: biochemical
Method in brief: (§1)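 Recombinant Mpro from E. coli was pre-incubated with compound (3-fold, 10-point dilutions, duplicates) for 30 min at room temperature, then fluorogenic peptide substrate was added and fluorescence read at Ex/Em 340/490 nm after 60 min at 30 °C. IC50 came from four-parameter fits of background-corrected inhibition.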

HCoV-OC43 Mpro = HCoV-OC43 Mpro (Human coronavirus OC43, UniProt P0C6X6); test: HCoV-OC43 Mpro enzymatic inhibition assay (fluorescence); format: biochemical
Method in brief: as §1

SARS-CoV-1 Mpro = SARS-CoV-1 Mpro (Severe acute respiratory syndrome coronavirus, UniProt P0C6X7); test: biochemical
MERS Mpro = MERS Mpro (Middle East respiratory syndrome-related coronavirus, UniProt K9N7C7); test: biochemical; set-up: species or system MERS-CoV
HCoV-NL63 Mpro = HCoV-NL63 Mpro (Human coronavirus NL63, UniProt P0C6X5); test: HCoV-NL63 Mpro enzymatic inhibition assay (fluorescence); format: biochemical
Method in brief: as §1

HCoV-229E Mpro = HCoV-229E Mpro (Human coronavirus 229E, UniProt P0C6X1); test: HCoV-229E Mpro enzymatic inhibition assay (fluorescence); format: biochemical
[1] = mean, 25 nM protein, 25 μM substrate, 30 min pre-incubation, 60 min at 30° C., read-out: Mpro_SARS-CoV-2 mean IC50

Chain of MERS Mpro (K9N7C7 3248-3553 limits assumed): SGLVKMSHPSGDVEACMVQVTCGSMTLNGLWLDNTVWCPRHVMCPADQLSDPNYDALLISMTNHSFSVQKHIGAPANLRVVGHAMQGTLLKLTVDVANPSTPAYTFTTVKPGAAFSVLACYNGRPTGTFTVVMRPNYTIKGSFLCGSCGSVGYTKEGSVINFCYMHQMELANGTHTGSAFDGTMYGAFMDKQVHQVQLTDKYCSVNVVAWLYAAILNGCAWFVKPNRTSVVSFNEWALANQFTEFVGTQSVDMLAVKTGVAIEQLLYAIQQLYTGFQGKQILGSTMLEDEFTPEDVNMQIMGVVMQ
Chain of HCoV-229E Mpro (P0C6X1 2966-3267 limits assumed): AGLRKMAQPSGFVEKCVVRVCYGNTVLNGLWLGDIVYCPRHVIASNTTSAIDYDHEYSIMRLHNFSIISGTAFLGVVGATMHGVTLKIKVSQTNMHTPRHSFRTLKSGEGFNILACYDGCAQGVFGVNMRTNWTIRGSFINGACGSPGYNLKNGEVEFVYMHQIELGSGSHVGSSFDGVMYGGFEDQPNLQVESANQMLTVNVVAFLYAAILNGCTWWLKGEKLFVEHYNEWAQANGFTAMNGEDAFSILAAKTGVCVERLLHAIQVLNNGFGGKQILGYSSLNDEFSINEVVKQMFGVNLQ
Chain of HCoV-HKU1 Mpro (P0C6X2 3335-3637 limits assumed): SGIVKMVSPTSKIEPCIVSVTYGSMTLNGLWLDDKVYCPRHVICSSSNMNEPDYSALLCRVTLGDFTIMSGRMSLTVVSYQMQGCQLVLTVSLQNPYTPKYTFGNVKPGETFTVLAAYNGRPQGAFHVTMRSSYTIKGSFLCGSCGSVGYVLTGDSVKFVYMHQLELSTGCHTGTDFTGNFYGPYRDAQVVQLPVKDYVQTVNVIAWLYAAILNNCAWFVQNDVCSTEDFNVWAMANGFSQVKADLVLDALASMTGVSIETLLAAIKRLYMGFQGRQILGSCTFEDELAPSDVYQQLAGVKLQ
Chain of HCoV-NL63 Mpro (P0C6X5 2940-3242 limits assumed): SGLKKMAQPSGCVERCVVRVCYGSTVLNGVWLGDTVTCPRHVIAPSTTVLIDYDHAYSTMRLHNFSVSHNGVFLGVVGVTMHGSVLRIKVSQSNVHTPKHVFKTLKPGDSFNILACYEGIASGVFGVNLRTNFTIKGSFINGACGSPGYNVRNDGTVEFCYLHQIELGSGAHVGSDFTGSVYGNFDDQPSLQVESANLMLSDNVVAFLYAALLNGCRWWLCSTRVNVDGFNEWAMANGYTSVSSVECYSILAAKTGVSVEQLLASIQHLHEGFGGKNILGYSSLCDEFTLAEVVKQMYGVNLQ
Chain of HCoV-OC43 Mpro (P0C6X6 3247-3549 limits assumed): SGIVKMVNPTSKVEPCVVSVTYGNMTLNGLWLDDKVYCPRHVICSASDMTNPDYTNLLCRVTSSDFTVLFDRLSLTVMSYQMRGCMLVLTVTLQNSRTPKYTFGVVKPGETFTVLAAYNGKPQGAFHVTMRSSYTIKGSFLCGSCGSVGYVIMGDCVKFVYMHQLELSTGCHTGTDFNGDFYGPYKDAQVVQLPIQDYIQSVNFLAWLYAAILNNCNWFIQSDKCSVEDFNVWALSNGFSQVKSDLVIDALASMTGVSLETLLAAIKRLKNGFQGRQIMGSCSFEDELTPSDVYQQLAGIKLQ

| Compound | IC50 (SARS-CoV-2 Mpro) | IC50 (HCoV-HKU1 Mpro) | IC50 (HCoV-OC43 Mpro) | IC50 (SARS-CoV-1 Mpro) | IC50 (MERS Mpro) | IC50 (HCoV-NL63 Mpro) | IC50 (HCoV-229E Mpro) | IC50 (SARS-CoV-2 Mpro; [1]) |
| --- | --- | --- | --- | --- | --- | --- | --- | --- |
| C[C@@H](C(=O)N1C[C@H]2[C@@H]([C@H]1C(=O)N[C@H](C=O)C[C@@H]1CCNC1=O)C2(C)C)c1ccccc1 [Compound 37, (1R,2S,5S)-6,6-dimethyl-N—((S)-1-oxo-3-((S)-2-oxopyrrolidin-3-yl)propan-2-yl)-3-((R)-2-phenylpropanoyl)-3-azabicyclo[3.1.0]hexane-2-carboxamide] | 20.6 nM | 36.4 nM | 36.7 nM | 40.4 nM | 242 nM | 188 nM | 45.6 nM |  |
| O=C[C@H](C[C@@H]1CCNC1=O)NC(=O)[C@@H]1CC2(CC2)CN1C(=O)c1cc2ccccc2[nH]1 [Compound 47, (S)-5-(1H-Indole-2-carbonyl)-N—((S)-1-oxo-3-((S)-2-oxopyrrolidin-3-yl)propan-2-yl)-5-azaspiro[2.4]heptane-6-carboxamide] |  | 16.8 nM | 64 nM | 43 nM | 139 nM | 48 nM | 47.8 nM | 22.8 nM |
| CC1(C)[C@@H]2[C@@H](C(=O)N[C@H](C=O)C[C@@H]3CCNC3=O)N(C(=O)c3cc4ccc(Cl)c(F)c4[nH]3)C[C@@H]21 [Compound 21, (1R,2S,5S)-3-(6-chloro-7-fluoro-1H-indole-2-carbonyl)-6,6-dimethyl-N—((S)-1-oxo-3-((S)-2-oxopyrrolidin-3-yl)propan-2-yl)-3-azabicyclo[3.1.0]hexane-2-carboxamide] | 15.7 nM | 38 nM | 59.4 nM | 27.6 nM | 234 nM | 57.7 nM | 22.2 nM |  |
| CC(C)(C)CCC(=O)N1C[C@H]2[C@@H]([C@H]1C(=O)N[C@H](C=O)C[C@@H]1CCNC1=O)C2(C)C [Compound 73, (1R,2S,5S)-3-(4,4-Dimethylpentanoyl)-6,6-dimethyl-N—((S)-1-oxo-3-((S)-2-oxopyrrolidin-3-yl)propan-2-yl)-3-azabicyclo[3.1.0]hexane-2-carboxamide] |  | 57.5 nM | 71.4 nM | 63.1 nM | 326 nM | 182 nM | 62.6 nM | 31.8 nM |
| Cc1ccc(F)c2[nH]c(C(=O)N3C[C@H]4[C@@H]([C@H]3C(=O)N[C@H](C=O)C[C@@H]3CCNC3=O)C4(C)C)cc12 [Compound 77, (1R,2S,5S)-3-(7-Fluoro-4-methyl-1H-indole-2-carbonyl)-6,6-dimethyl-N—((S)-1-oxo-3-((S)-2-oxopyrrolidin-3-yl)propan-2-yl)-3-azabicyclo[3.1.0]hexane-2-carboxamide] | 33.1 nM | 45.3 nM | 83.8 nM | 27.6 nM | 401 nM | 99.2 nM | 41.9 nM |  |
| O=C[C@H](C[C@@H]1CCNC1=O)NC(=O)[C@@H]1C[C@@H]2CCC[C@@H]2N1C(=O)c1cc2ccccc2[nH]1 [Compound 129, (2S,3aS,6aS)-1-(1H-Indole-2-carbonyl)-N—((S)-1-oxo-3-((S)-2-oxopyrrolidin-3-yl)propan-2-yl)octahydrocyclopenta[b]pyrrole-2-carboxamide] | 351 nM | 76 nM | 166 nM | 874 nM | 1110 nM | 51 nM | 38 nM |  |
| N#Cc1cccc2[nH]c(C(=O)N3CC4(CC4)C[C@H]3C(=O)N[C@H](C=O)C[C@@H]3CCNC3=O)cc12 [Compound 76, (S)-5-(4-Cyano-1H-indole-2-carbonyl)-N—((S)-1-oxo-3-((S)-2-oxopyrrolidin-3-yl)propan-2-yl)-5-azaspiro[2.4]heptane-6-carboxamide] | 32.7 nM | 13.1 nM | 30.1 nM | 60.6 nM | 200 nM | 33 nM | 26.9 nM |  |
| Cc1cc(Cl)cc2cc(C(=O)N3C[C@H]4[C@@H]([C@H]3C(=O)N[C@H](C=O)C[C@@H]3CCNC3=O)C4(C)C)[nH]c12 [Compound 69, (1R,2S,5S)-3-(5-Chloro-7-methyl-1H-indole-2-carbonyl)-6,6-dimethyl-N—((S)-1-oxo-3-((S)-2-oxopyrrolidin-3-yl)propan-2-yl)-3-azabicyclo[3.1.0]hexane-2-carboxamide] | 29.2 nM | 32.6 nM | 79.8 nM | 48.8 nM | 476 nM | 80.7 nM | 50.5 nM |  |
| CC1(C)[C@@H]2[C@@H](C(=O)N[C@H](C=O)C[C@@H]3CCNC3=O)N(C(=O)c3cc4cccc(C(F)(F)F)c4[nH]3)C[C@@H]21 [Compound 29, (1R,2S,5S)-6,6-dimethyl-N—((S)-1-oxo-3-((S)-2-oxopyrrolidin-3-yl)propan-2-yl)-3-(7-(trifluoromethyl)-1H-indole-2-carbonyl)-3-azabicyclo[3.1.0]hexane-2-carboxamide] | 18.3 nM | 53.5 nM | 87 nM | 35.2 nM | 296 nM | 93.9 nM | 47.4 nM |  |
| CCOc1ccc2[nH]c(C(=O)N3C[C@H]4[C@@H]([C@H]3C(=O)N[C@H](C=O)C[C@@H]3CCNC3=O)C4(C)C)cc2c1 [Compound 111, (1R,2S,5S)-3-(5-Ethoxy-1H-indole-2-carbonyl)-6,6-dimethyl-N—((S)-1-oxo-3-((S)-2-oxopyrrolidin-3-yl)propan-2-yl)-3-azabicyclo[3.1.0]hexane-2-carboxamide] | 84.1 nM | 73.3 nM | 169 nM | 119 nM | 866 nM | 135 nM | 83.3 nM |  |
| O=C[C@H](C[C@@H]1CCNC1=O)NC(=O)[C@@H]1[C@H]2C[C@H](F)[C@H](C2)N1C(=O)c1cc2ccccc2[nH]1 [Compound 106, (1S,3S,4R,6S)-6-Fluoro-2-(1H-indole-2-carbonyl)-N—((S)-1-oxo-3-((S)-2-oxopyrrolidin-3-yl)propan-2-yl)-2-azabicyclo[2.2.1]heptane-3-carboxamide] | 73.7 nM | 39.7 nM | 118 nM | 176 nM | 859 nM | 156 nM | 91.2 nM |  |
| CC1(C)[C@@H]2[C@@H](C(=O)N[C@H](C=O)C[C@@H]3CCNC3=O)N(C(=O)c3cc4c(F)ccc(Cl)c4[nH]3)C[C@@H]21 [Compound 49, (1R,2S,5S)-3-(7-chloro-4-fluoro-1H-indole-2-carbonyl)-6,6-dimethyl-N—((S)-1-oxo-3-((S)-2-oxopyrrolidin-3-yl)propan-2-yl)-3-azabicyclo[3.1.0]hexane-2-carboxamide] | 23 nM | 23.4 nM | 37 nM | 29.4 nM | 202 nM | 57.6 nM | 31.5 nM |  |
| O=C[C@H](C[C@@H]1CCNC1=O)NC(=O)[C@@H]1C[C@@H](Cc2ccccc2Cl)CN1C(=O)c1cc2ccccc2[nH]1 [Compound 109, (2S,4R)-4-(2-Chlorobenzyl)-1-(1H-indole-2-carbonyl)-N—((S)-1-oxo-3-((S)-2-oxopyrrolidin-3-yl)propan-2-yl)pyrrolidine-2-carboxamide] | 80.8 nM | 48.9 nM | 271 nM | 231 nM | 4320 nM | 2320 nM | 374 nM |  |
| CC1(C)[C@@H]2[C@@H](C(=O)N[C@H](C#N)C[C@@H]3CCNC3=O)N(C(=O)c3cc4cccc(Cl)c4[nH]3)C[C@@H]21 [Compound 132, (1R,2S,5S)-3-(7-Chloro-1H-indole-2-carbonyl)-N—((S)-1-cyano-2-((S)-2-oxopyrrolidin-3-yl)ethyl)-6,6-dimethyl-3-azabicyclo[3.1.0]hexane-2-carboxamide] | 434 nM | 1910 nM | 3010 nM | 873 nM | 5440 nM | 3970 nM | 1210 nM |  |
| CC1(C)[C@@H]2[C@@H](C(=O)N[C@H](C=O)C[C@@H]3CCNC3=O)N(C(=O)CC3CCCCC3)C[C@@H]21 [Compound 53, (1R,2S,5S)-3-(2-cyclohexylacetyl)-6,6-dimethyl-N—((S)-1-oxo-3-((S)-2-oxopyrrolidin-3-yl)propan-2-yl)-3-azabicyclo[3.1.0]hexane-2-carboxamide] |  | 25.6 nM | 26.3 nM | 45.7 nM | 326 nM | 66.5 nM | 29.7 nM | 25 nM |
| Cc1cccc2c1cc(C(=O)N1C[C@H]3[C@@H]([C@H]1C(=O)N[C@H](C=O)C[C@@H]1CCNC1=O)C3(C)C)n2C [Compound 118, (1R,2S,5S)-3-(1,4-Dimethylindole-2-carbonyl)-N-[(1S)-1-formyl-2-[(3S)-2-oxopyrrolidin-3-yl]ethyl]-6,6-dimethyl-3-azabicyclo[3.1.0]hexane-2-carboxamide] | 127 nM | 324 nM | 436 nM | 349 nM | 3290 nM | 1780 nM | 325 nM |  |
